US7795244B2, “Penem prodrugs” (priority 2006, dated 2010)
≈ marks a conversion by molar mass, not a printed value. Where “and” joins values, the source holds several entries; their conditions need not be identical. Equal entries are not always repeated. Where two headings read alike, the source gives them in different places.

Tests used:
[1] = human, pH 7.4
[2] = Stability in the presence of porcine pancrelipase (PPE); format: in vitro ADME; conditions: pig, porcine pancrelipase (ku-zyme HP) in phosphate buffer, 50 μM substrate, pH 7.4, 37° C.
[3] = by comparison to intravenous AUCs (Table 4, Foulds et al.), cited from earlier work
[4] = Stability in human intestinal juice (HIJ); conditions: pooled human intestinal juice (4 subjects), buffered, pH 7.4
plasma carnitine = experiment: Acute model of carnitine depletion; format: in vivo; conditions: 200 mg/kg BID orally for 4 days, Sprague-Dawley rats, relative to vehicle control (FIG. 1)
Protocol: Of interest was a comparison between Compound 1 and […] in terms of the prodrug side chains' tendency or lack thereof to deplete plasma carnitine following metabolism of the intact prodrug. This was evaluated in vivo using an acute model of carnitine depletion in Sprague-Dawley rats. To understand the potential impact in vivo, radiolabeled pivalic acid (Compound B1 side chain) and 2-ethylbutyric acid (Compound 1 side chain) were administered orally at a dose of 200 mg/kg BID for 4 days to two separate groups of animals. […] Doses were administered in 100 mM sodium phosphate pH 6.6 at a dose volume of 10 mL/kg. Blood samples were obtained at 24 hour intervals following initiation of the study, processed for plasma and assayed for carnitine levels by LC/MS/MS. A vehicle control consisting of oral administration of an equal volume of buffer without compound was completed as a baseline comparison.

[5] = Pharmacokinetics of total radioactivity after single oral dose; format: in vivo, Sprague-Dawley Rats; conditions: single oral 200 mg/kg; rats
Protocol: A separate study using a single 200 mg/kg dose of each radiolabeled compound (pivalic acid and […]) was completed in rats to determine systemic exposure of dose following oral administration. The oral administration route was chosen because it is expected that the majority of hydrolysis of the prodrugs will occur within the intestine prior to entering systemic circulation. Plasma samples were obtained prior to dosing and at 0.25, 0.5, 1, 4, 8, and 24 hr post-dose. Samples were quantified for radioactivity by liquid scintillation counting and the counts were converted to […] equivalents/mL. As shown in Table 5 and FIG. 2, once absorbed, radioactivity associated with 2-ethylbutyric acid is cleared 4.5 fold faster than pivalic acid, reflecting efficient metabolic processing and excretion of the compound.

K. pneumoniae 1109 = experiment: Murine acute systemic infection model; conditions: Murine acute systemic infection vs. K. pneumoniae 1109; oral BID; survival day four post-infection; repeat experiments
S. pneumoniae 1095 [6] = experiment: Murine respiratory tract infection model; conditions: Murine respiratory tract infection vs. S. pneumoniae 1095; oral BID for two days from 18 h post-infection; survival day ten; repeat experiments
Equilibrium solubility = format: physicochemical; conditions: aqueous buffer, thermodynamic from solid, 25 mM phosphate buffer (pH 5), ambient temperature / 25° C.
Protocol: Vials containing excess prodrug in phosphate buffer were rotated for up to 48 hours. After the equilibrium period, samples were pulled, filtered through 0.45 μm Gelman Acrodisc Nylon syringe filter and analyzed for drug concentration using HPLC. The HPLC conditions were: Column. C18, SymmetryShield RP, Waters, 4.6×150 mm, 3.5 micron; Mobile phase A: Acetonitrile; Mobile phase B: 0.1% TFA in water; Flow rate, 1 mL/min; Run Time: 30 min Inj. vol. 20 μL; Detection: 210 nm; Dissolving solvent: Acetonitrile/water (50:50 v:v).

S. pneumoniae 1095 [7] = experiment: Murine acute systemic infection model; conditions: Murine acute systemic infection vs. S. pneumoniae 1095; oral BID; survival day four post-infection; repeat experiments
K. pneumoniae 6485 = experiment: Murine acute systemic infection model; conditions: Murine acute systemic infection vs. K. pneumoniae 6485; oral BID; survival day four post-infection; repeat experiments
H. influenzae BLNAR = experiment: Gerbil otitis media model; conditions: Gerbil otitis media vs. H. influenzae BLNAR, oral TID for two days from 18 h post-infection, bacterial levels in middle ear fluid day four, repeat experiments
[8] = test system: porcine pancrelipase (PPE); experiment: Stability in the presence of porcine pancrelipase (PPE); format: in vitro ADME; conditions: ku-zyme Lot 1; 50 μM substrate, pH 7.4, 37° C.
[9] = humans; given orally as a mixture of two stereoisomers; Foulds et al.; cited from earlier work

## C[C@@H](O)[C@H]1C(=O)N2C(C(=O)OCOC(=O)C(C)(C)C)=C(S[C@H]3CC[S@@+]([O-])C3)S[C@H]12 (racemic) [Compound B2, reference compound]
[1]
  HIJ Clint (avg): 0.09 mL/min
[2]; pH 7.4, ku-zyme Lot 1
  half-life at 50 µM: 11.6 min
[2]; pH 7.4, ku-zyme lot 2
  half-life at 50 µM: 19.6 min
[3]; sulopenem equivalent dose 205 mg
  fraction absorbed: 38.5%
[3]; sulopenem equivalent dose 409 mg
  fraction absorbed: 33.5%
[4]
  Km: 40 µM

## CCC(CC)C(=O)O [2-ethylbutyric acid]
Plasma carnitine
  change in plasma carnitine: statistically insignificant changes in plasma carnitine
[5]
  clearance of radioactivity, fold faster than pivalic acid: 4.5 fold

## CCOC(C)(C)C(=O)OCOC(=O)C1=C(S[C@H]2CC[S@@+]([O-])C2)S[C@@H]2[C@@H]([C@@H](C)O)C(=O)N12 [Compound 2, (2-Ethoxy-2-methyl-1-oxopropoxy)methyl (5R,6S)-6-[(1R)-1-hydroxyethyl]-7-oxo-3-[[(1R,3S)-tetrahydro-1-oxido-3-thienyl]thio]-4-thia-1-azabicyclo[3.2.0]hept-2-ene-2-carboxylate]
[1]
  HIJ Clint (avg): 0.13 mL/min
K. pneumoniae 1109
  PD50: 12.5 mg/kg and 16.2 mg/kg
[2]; pH 7.4, ku-zyme Lot 1
  half-life at 50 µM: 19.1 min
S. pneumoniae 1095 [6]
  PD50: 19.7 mg/kg and 38.5 mg/kg
Equilibrium solubility
  solubility: 2900 µg/mL (≈ 5870 µM)
[4]
  Km: 105 µM
S. pneumoniae 1095 [7]
  PD50: 7.9 mg/kg and 6.3 mg/kg and 11.0 mg/kg

## C[C@@H](O)[C@H]1C(=O)N2C(C(=O)OCOC(=O)OC3CCC(C)(C)CC3)=C(S[C@H]3CC[S@@+]([O-])C3)S[C@H]12 [Compound A]
[1]
  HIJ Clint (avg): 0.38 mL/min
K. pneumoniae 1109
  PD50: 10.1 mg/kg and 15.3 mg/kg
[2]; pH 7.4, ku-zyme Lot 1
  half-life at 50 µM: 3.9 ± 1.1 min
[2]; pH 7.4, ku-zyme lot 2
  half-life at 50 µM: 6.3 min
S. pneumoniae 1095 [6]
  PD50: 17.8 mg/kg and 20.8 mg/kg
K. pneumoniae 6485
  PD50: 40.7 mg/kg
Equilibrium solubility
  solubility: 136 µg/mL (≈ 255 µM)
[4]
  Km: 300 µM
S. pneumoniae 1095 [7]
  PD50: 9.0 mg/kg and 15.3 mg/kg
H. influenzae BLNAR
  ED50: 8.7 mg/kg
H. influenzae BLNAR; Haemophilus influenzae, in Meriones unguiculatus, po
  ED50: 6.9 mg/kg

## C[C@@H](O)[C@H]1C(=O)N2C(C(=O)OCOC(=O)C(C)(C)C)=C(S[C@H]3CC[S@@+]([O-])C3)S[C@H]12 [Compound B1, reference compound]
[1]
  HIJ Clint (avg): 0.11 mL/min
[2]; pH 7.4, ku-zyme lot 2
  half-life at 50 µM: 22.5 min
K. pneumoniae 6485
  PD50: >100 mg/kg
Equilibrium solubility
  solubility: 389 µg/mL (≈ 839 µM)
[4]
  Km: 29 µM

## CCC(CC)(CC)C(=O)OCOC(=O)C1=C(S[C@H]2CC[S@@+]([O-])C2)S[C@@H]2[C@@H]([C@@H](C)O)C(=O)N12 [Compound C]
[2]; pH 7.4, ku-zyme Lot 1
  half-life at 50 µM: 21.1 min

## CCCC(C)(C)C(=O)OCOC(=O)C1=C(S[C@H]2CC[S@@+]([O-])C2)S[C@@H]2[C@@H]([C@@H](C)O)C(=O)N12 [Compound I]
[2]; pH 7.4, ku-zyme Lot 1
  half-life at 50 µM: 14.4 min

## CC(C)CC(=O)OCOC(=O)C1=C(S[C@H]2CC[S@@+]([O-])C2)S[C@@H]2[C@@H]([C@@H](C)O)C(=O)N12 [E]
[2]; pH 7.4, ku-zyme Lot 1
  half-life at 50 µM: 6.4 min

## CC(C)C(=O)OCOC(=O)C1=C(S[C@H]2CC[S@@+]([O-])C2)S[C@@H]2[C@@H]([C@@H](C)O)C(=O)N12 [F]
[2]; pH 7.4, ku-zyme Lot 1
  half-life at 50 µM: 4.7 min

## CC(=O)OCOC(=O)C1=C(S[C@H]2CC[S@@+]([O-])C2)S[C@@H]2[C@@H]([C@@H](C)O)C(=O)N12 [G]
[1]
  HIJ Clint (avg): 0.18 mL/min
[2]; pH 7.4, ku-zyme Lot 1
  half-life at 50 µM: 21.2 min
[4]
  Km: 390 µM

## CCC(C)C(=O)OCOC(=O)C1=C(S[C@H]2CC[S@@+]([O-])C2)S[C@@H]2[C@@H]([C@@H](C)O)C(=O)N12 (stereo partly shown) [H]
[2]; pH 7.4, ku-zyme Lot 1
  half-life at 50 µM: 6.8 min

## CCC(C)(C)C(=O)OCOC(=O)C1=C(S[C@H]2CC[S@@+]([O-])C2)S[C@@H]2[C@@H]([C@@H](C)O)C(=O)N12 [J]
[2]; pH 7.4, ku-zyme Lot 1
  half-life at 50 µM: 11 min

## CCCCC(C)(C)C(=O)OCOC(=O)C1=C(S[C@H]2CC[S@@+]([O-])C2)S[C@@H]2[C@@H]([C@@H](C)O)C(=O)N12 [K]
[2]; pH 7.4, ku-zyme Lot 1
  half-life at 50 µM: 14.5 min

## CCC(C)(CC)C(=O)OCOC(=O)C1=C(S[C@H]2CC[S@@+]([O-])C2)S[C@@H]2[C@@H]([C@@H](C)O)C(=O)N12 [M]
[2]; pH 7.4, ku-zyme Lot 1
  half-life at 50 µM: 39.4 min

## CC(C)C(C)(C)C(=O)OCOC(=O)C1=C(S[C@H]2CC[S@@+]([O-])C2)S[C@@H]2[C@@H]([C@@H](C)O)C(=O)N12 [N]
[2]; pH 7.4, ku-zyme Lot 1
  half-life at 50 µM: 11.1 min

## CCCC(CCC)C(=O)OCOC(=O)C1=C(S[C@H]2CC[S@@+]([O-])C2)S[C@@H]2[C@@H]([C@@H](C)O)C(=O)N12 [O]
[2]; pH 7.4, ku-zyme Lot 1
  half-life at 50 µM: 8.3 min

## CCC(C)C(=O)OCOC(=O)C1=C(S[C@H]2CC[S@@+]([O-])C2)S[C@@H]2[C@@H]([C@@H](C)O)C(=O)N12 (stereo partly shown) [P]
[8]
  PPE Half Life: 4.2 min

## CCCC(C)C(=O)OCOC(=O)C1=C(S[C@H]2CC[S@@+]([O-])C2)S[C@@H]2[C@@H]([C@@H](C)O)C(=O)N12 (stereo partly shown) [Q]
[2]; pH 7.4, ku-zyme Lot 1
  half-life at 50 µM: 4.8 min

## CCC(C(=O)OCOC(=O)C1=C(S[C@H]2CC[S@@+]([O-])C2)S[C@@H]2[C@@H]([C@@H](C)O)C(=O)N12)C(C)C (stereo partly shown) [R]
[2]; pH 7.4, ku-zyme Lot 1
  half-life at 50 µM: 5.3 min

## C[C@@H](O)[C@H]1C(=O)N2C(C(=O)OCOC(=O)C(C)(C)C(C)(C)C)=C(S[C@H]3CC[S@@+]([O-])C3)S[C@H]12 [S]
[2]; pH 7.4, ku-zyme Lot 1
  half-life at 50 µM: 6.3 min

## CC(C)C(C(=O)OCOC(=O)C1=C(S[C@H]2CC[S@@+]([O-])C2)S[C@@H]2[C@@H]([C@@H](C)O)C(=O)N12)C(C)C [T]
[2]; pH 7.4, ku-zyme Lot 1
  half-life at 50 µM: 7.7 min

## CC(C)CC(CC(C)C)C(=O)OCOC(=O)C1=C(S[C@H]2CC[S@@+]([O-])C2)S[C@@H]2[C@@H]([C@@H](C)O)C(=O)N12 [U]
[2]; pH 7.4, ku-zyme Lot 1
  half-life at 50 µM: 6.4 min

## CC(C)CC(C)(C)C(=O)OCOC(=O)C1=C(S[C@H]2CC[S@@+]([O-])C2)S[C@@H]2[C@@H]([C@@H](C)O)C(=O)N12 [V]
[2]; pH 7.4, ku-zyme Lot 1
  half-life at 50 µM: 10.5 min

## C[C@@H](O)[C@H]1C(=O)N2C(C(=O)OCOC(=O)CC(C)(C)C)=C(S[C@H]3CC[S@@+]([O-])C3)S[C@H]12 [W]
[2]; pH 7.4, ku-zyme Lot 1
  half-life at 50 µM: 7.6 min

## CCC(=O)OCOC(=O)C1=C(S[C@H]2CC[S@@+]([O-])C2)S[C@@H]2[C@@H]([C@@H](C)O)C(=O)N12 [X]
[2]; pH 7.4, ku-zyme Lot 1
  half-life at 50 µM: 4.7 min

## C[C@@H](O)[C@H]1C(=O)N2C(C(=O)OCOC(=O)C(C(C)(C)C)C(C)(C)C)=C(S[C@H]3CC[S@@+]([O-])C3)S[C@H]12 [Y]
[2]; pH 7.4, ku-zyme Lot 1
  half-life at 50 µM: 8 min

## CC(O)C1C(=O)N2C(C(=O)OCOC(=O)C(C)(C)C)=C(SC3CC[S+]([O-])C3)SC12 (stereo not shown) [sulopenem POM ester]
[9]
  oral bioavailability (in words): orally bioavailable in humans
